pIC50: −log10 of the molar value.

For one experiment, the target named is T1, HIV-1 Protease (Human immunodeficiency virus type 1 group M subtype B, UniProt P04585).
T1 construct: HIV-1 Protease: The enzyme is obtained from Bachem Bioscience Inc; purchased Bachem Bioscience Inc
The experiment in a line: HIV Protease Inhibition Assay (HPLC of undecapeptide substrate hydrolysis). The note with it: 40 μM substrate, 37° C., 5 minutes, pH 4.7, 2% DMSO; read-out: 50% INHIBITION CONCENTRATION
Type of experiment: biochemical. As for the experimental part:
The biological activity of the subject compounds was determined in an HIV Protease Inhibition Assay.
DTT Buffer: 1.0 mM dithiothreitol (DTT) was prepared fresh daily in 0.1% polyethylene glycol (mw 8000) 80 mM NaOAc, 160 mM NaCl, 1.0 mM EDTA, and brought to pH 4.7 with HCl.
HIV-1 Protease: The enzyme is obtained from Bachem Bioscience Inc. The undiluted enzyme is thawed from -80° C. and diluted 50-fold with DTT buffer. The solution is always kept at 0° C. on ice water and used in the experiment within 20 minutes after thawing.
Ensyme Substrates: Substrate III from Bachem Bioscience Inc. is the undecapeptide H-His-Lys-Ala-Arg-Val-Leu-p-Nitrophenylalanine-Glu-Ala-Norleucine-Ser-NH2 (>97% purity). A 200 μM stock solution in DTT buffer is prepared and stored on ice. Substrate solution is prepared fresh daily.
Test Compound: 10 mM inhibitor (I) in dimethyl sulfoxide (DMSO) is diluted to 200 μM with DTT buffer. From the 200 μM stock solution is made a 10 μM stock solution with 2% DMSO in DTT buffer. The two inhibitor solutions are used to make final I!=100, 50, 20, 10, 5, 2, 1, 0.5 and 0 μM with 2% DMSO in DTT buffer in each reaction well (total inhibitor volume of 50 μl).
To each reaction well is added 20 μl of substrate (final concentration of 40 μM), 50 μl of inhibitor (at a concentration such that final dilution will produce the test concentration) and 20 μl of DTT buffer. The reaction plate (96 wells) is incubated at 37° C. for at least 5 minutes.
10 μl of the diluted protease is added to the reaction well while the reaction plate is shaking. Once shaken for 10 seconds, the plate is returned to the heating block at 37° C. (final reaction volume 100 μl.)
The reaction is incubated for 5 minutes at 37° C. The reaction is stopped by placing the reaction plate on the shaker and adding 20 μl of 10% trifluoroacetic acid (TFA) and shaking for 10 seconds. The amount of proteolysis is then determined by separation of noncleaved substrate and two cleaved products with reverse-phase HPLC, while measuring absorbance at 220 nm to determine the relative peak areas of the three components. The relative peak areas are used to calculate % conversion to product as a function of inhibitor concentration. The data is plotted as % Control (the ratio of % conversion is the presence and absence of inhibitor×100) versus inhibitor concentration and fit with the equation Y=100/1+(X/IC50)^A, where IC50 is the inhibitor concentration at 50% inhibition and A is the slope of the inhibition curve.
In the case of `O=c1oc2c(c(O)c1SCc1ccccc1)CCc1ccccc1-2` [Example 4, 5,6-Dihydro-4-hydroxy-3-(phenylmethyl)thio!-2H-naphtho 1,2-b!pyran-2-one], the pIC50 was 5.85.

As for `O=c1oc2c(c(O)c1SCc1ccccc1)COc1ccccc1-2` [Example 14, 4-Hydroxy-3-(phenylmethyl)thio!-2H,5H-pyrano 3,2-c! 1!bensopyran-2-one], the pIC50 is 5.40. For the compound `O=c1oc2c(c(O)c1SCc1ccccc1)Cc1ccc(OCc3ccccc3)cc1-2` [Example 11, 4-Hydroxy-8-(phenylmethoxy)-3-(phenylmethyl)thio!indeno 1,2-b!pyran-2(5H)-one], the pIC50 was 5.66. Still for that read-out and setting: the value for `O=c1oc2c(c(O)c1SCc1ccccc1)Cc1ccc(O)cc1-2` [Example 3, 4,8-Dihydroxy-3-(phenylmethyl)thio!-indeno 1,2-b!pyran-2(5H)-one] was 6.15; that for `O=c1oc2c(c(O)c1SCc1ccccc1)CCc1cc(O)ccc1-2` [Example 9, 5,6-Dihydro-4,8-dihydroxy-3-(phenylmethyl)thio! -2H-naphtho 1,2-b !pyran-2-one] was 5.60; that for `O=c1oc2c(c(O)c1SCCc1ccccc1)Cc1ccccc1-2` [Example 16, 4-Hydroxy-3-(2-phenylethyl)thio!indeno 1,2-b!pyran-2(5H)-one] was 5.46. On to `Cc1cc(C)c2c(c1)-c1oc(=O)c(SCc3ccccc3)c(O)c1CC2` [Example 6, 5,6-Dihydro-4-hydroxy-7,9-dimethyl-3-(phenylmethyl)thio!-2H-naphtho 1,2-b! pyran-2-one], for which the pIC50 was 5.70. Still for that read-out and setting: the value for `O=c1oc2c(c(O)c1SCc1ccccc1)CSc1ccccc1-2` [Example 25, 4-Hydroxy-3-(phenylmethyl)thio!-2H,5H-1!bensothiopyrano 4,3-b!pyran-2-one] was 5.89. Take `O=c1oc2c(c(O)c1SCc1ccccc1)Cc1ccccc1-2` [Example 1, 4-Hydroxy-3-(phenylmethyl)thio!-indeno 1,2-b!pyran-2(5H)-one]: the pIC50 was 5.89. The same measure, in the same setting: as for `O=C(O)COc1ccc2c(c1)-c1oc(=O)c(SCc3ccccc3)c(O)c1C2` [Example 29, 2,5-Dihydro-4-hydroxy-2-oxo-3-(phenylmethyl)thio!indeno 1,2-b!pyran-8 !oxy!-acetic acid], the figure is 5.85.

For another experiment, the system named is HIV.
Assay: not given
The settings on record: cell-free and cell-mediated; literature; cited from earlier work.
Take `CC(=O)CC(c1ccccc1)c1c(O)c2ccccc2oc1=O` (stereo not drawn) [Warfarin, 3-(α-acetonylbenzyl)-4-hydroxycoumarin]: the “inhibiting HIV infection” value was “inhibiting cell-free and cell-mediated HIV infection”.

Values taken from patent US5504104A, “Tricyclic pyrone derivatives as protease inhibitors and antiviral agents” (Warner-Lambert Company, priority 1993, dated 1996).
